According to ChEMBL document CHEMBL1201862, “PubChem BioAssay data set” (2004):
Calls of active or inactive are those of the source.

Tests used:
[1] = target: T1, Protein RecA (Mycobacterium tuberculosis, UniProt P9WHJ3); test: Fluorescence Cell-Free Homogeneous Dose Retest to Identify Inhibitors of RecA-Intein Splicing Activity. [Related pubchem assays (depositor defined):AID2097, AID2223, AID489010, AID492950]; format: functional
T1 sequence (P9WHJ3 whole entry): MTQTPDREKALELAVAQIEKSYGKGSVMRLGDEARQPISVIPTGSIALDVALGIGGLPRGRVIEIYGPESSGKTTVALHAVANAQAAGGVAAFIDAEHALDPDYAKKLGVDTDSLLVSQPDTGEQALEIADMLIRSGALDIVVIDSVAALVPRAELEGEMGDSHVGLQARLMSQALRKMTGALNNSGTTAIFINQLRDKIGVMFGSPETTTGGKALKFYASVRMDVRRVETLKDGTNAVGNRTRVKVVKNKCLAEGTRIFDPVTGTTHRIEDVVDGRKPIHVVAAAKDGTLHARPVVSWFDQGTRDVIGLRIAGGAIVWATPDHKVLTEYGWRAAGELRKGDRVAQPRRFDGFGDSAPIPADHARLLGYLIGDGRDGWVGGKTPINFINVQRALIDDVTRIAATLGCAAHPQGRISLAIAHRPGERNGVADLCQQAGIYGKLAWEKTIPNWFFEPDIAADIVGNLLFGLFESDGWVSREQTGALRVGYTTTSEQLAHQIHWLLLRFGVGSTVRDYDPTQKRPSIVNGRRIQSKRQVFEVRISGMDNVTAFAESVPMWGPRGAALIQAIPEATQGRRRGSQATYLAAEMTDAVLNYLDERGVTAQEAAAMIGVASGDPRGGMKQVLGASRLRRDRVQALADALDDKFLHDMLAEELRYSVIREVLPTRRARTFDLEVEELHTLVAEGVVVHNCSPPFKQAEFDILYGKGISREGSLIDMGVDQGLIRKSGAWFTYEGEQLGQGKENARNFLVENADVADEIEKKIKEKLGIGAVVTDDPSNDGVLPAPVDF

[2] = target: T2, 1-phosphatidylinositol 4,5-bisphosphate phosphodiesterase beta-3 (Homo sapiens, UniProt Q01970); test: Fluorescence-based biochemical high throughput dose response assay to identify inhibitors of phospholipase C isozymes (PLC-B3).
T2 sequence (Q01970 whole entry): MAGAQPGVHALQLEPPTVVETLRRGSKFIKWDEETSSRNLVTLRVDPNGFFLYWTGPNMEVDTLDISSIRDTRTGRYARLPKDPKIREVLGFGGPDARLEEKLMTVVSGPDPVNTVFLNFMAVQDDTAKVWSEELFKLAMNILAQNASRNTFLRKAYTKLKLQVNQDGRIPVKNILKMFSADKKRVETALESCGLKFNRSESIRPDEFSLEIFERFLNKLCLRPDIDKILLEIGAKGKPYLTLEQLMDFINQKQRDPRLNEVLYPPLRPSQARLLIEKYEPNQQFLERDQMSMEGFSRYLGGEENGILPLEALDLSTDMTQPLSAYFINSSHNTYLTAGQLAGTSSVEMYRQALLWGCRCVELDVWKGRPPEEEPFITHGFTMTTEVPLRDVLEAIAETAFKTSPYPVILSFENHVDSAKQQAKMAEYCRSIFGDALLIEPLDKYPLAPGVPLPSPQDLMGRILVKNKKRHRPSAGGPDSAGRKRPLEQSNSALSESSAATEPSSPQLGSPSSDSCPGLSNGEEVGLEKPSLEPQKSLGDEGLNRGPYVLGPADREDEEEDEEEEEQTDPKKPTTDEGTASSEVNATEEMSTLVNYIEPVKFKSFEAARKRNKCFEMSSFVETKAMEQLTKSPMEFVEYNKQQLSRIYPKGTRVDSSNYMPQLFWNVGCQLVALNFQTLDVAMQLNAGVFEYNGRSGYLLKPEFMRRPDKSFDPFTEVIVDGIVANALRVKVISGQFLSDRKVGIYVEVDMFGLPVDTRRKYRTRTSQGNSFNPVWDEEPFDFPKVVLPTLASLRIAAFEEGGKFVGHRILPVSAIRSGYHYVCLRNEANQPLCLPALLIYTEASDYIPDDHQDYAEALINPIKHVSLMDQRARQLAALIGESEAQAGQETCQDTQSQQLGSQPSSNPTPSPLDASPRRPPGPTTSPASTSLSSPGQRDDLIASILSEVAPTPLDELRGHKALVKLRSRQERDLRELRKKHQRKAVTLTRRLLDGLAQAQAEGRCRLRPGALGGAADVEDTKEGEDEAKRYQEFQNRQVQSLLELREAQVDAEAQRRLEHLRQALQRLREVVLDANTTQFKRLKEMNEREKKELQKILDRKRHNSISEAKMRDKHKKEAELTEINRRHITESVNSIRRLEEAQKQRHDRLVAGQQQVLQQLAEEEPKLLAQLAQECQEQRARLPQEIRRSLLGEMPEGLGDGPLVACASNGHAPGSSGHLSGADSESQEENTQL

| SMILES | EC50 [1] | IC50 [2] |
| --- | --- | --- |
| CCN(CC)CCN1C(=O)c2cccc3cc(N)cc(c23)C1=O | 0.209 µM (active) |  |
| O=S(=O)(O)c1cc(Cl)cc(N=Nc2ccc(O)cc2O)c1O |  | > 122 µM (inactive) |
| C=C1C(=O)O[C@@H]2C[C@@H](C)[C@@H]3C=CC(=O)[C@@]3(C)[C@@H](OC(=O)CC(=O)O[C@H]3[C@@H]4C(=C)C(=O)O[C@@H]4C[C@@H](C)[C@@H]4C=CC(=O)[C@]43C)[C@H]12 | 46 µM (active) |  |
| O=C(O)c1cccc(-n2cccc2/C=C2/NC(=O)N(c3ccc(Cl)cc3)C2=O)c1 |  | > 122 µM (inactive) |
